Assay results from patent publication US20260285850A1, “SUBSTITUTED OXAZOLIDINONES AND IMIDAZOLINONES AS HERBICIDES” (FMC CORPORATION, priority 2023, published 2026).

Legend:
Type in all cases: in vivo
[1] = test system: barnyardgrass (Echinochloa crus-galli); experiment: Test A preemergence soil spray, visual injury rating 0-100; settings: 10 days, 0 = no effect, 100 = complete control
Text: (§1) Seeds of plant species selected from barnyardgrass (Echinochloa crus-galli), blackgrass (Alopecurus myosuroides), corn (Zea mays), foxtail, giant (giant foxtail, Setaria faberi), green foxtail (Setaria viridis), goosegrass (Eleusine indica), kochia (Bassia scoparia), oat, wild (wild oat, Avena fatua), palmer (palmer amaranth, palmer pigweed, Amaranthus palmeri), ragweed (common ragweed, Ambrosia artemisiifolia), ryegrass, Italian (italian ryegrass, Lolium multiflorum), soybean (Glycine max) and wheat (Triticum aestivum) were planted into a blend of loam soil and sand and treated preemergence with a directed soil spray using test chemicals formulated in a non-phytotoxic solvent mixture which included a surfactant.
(§2) At the same time, plants selected from these crops and weed species and also galium (catchweed bedstraw, Galium aparine) and horseweed (Erigeron canadensis) were planted in pots containing the same blend of loam soil and sand and treated with postemergence applications of test chemicals formulated in the same manner. Plants ranged in height from 2 to 10 cm and were in the one- to two-leaf stage for the postemergence treatment. Treated plants and untreated controls were maintained in a greenhouse for 10 days, after which time all treated plants were compared to untreated controls and visually evaluated for injury. Plant response ratings, summarized in Table A, are based on a 0 to 100 scale where 0 is no effect and 100 is complete control. A dash (-) response means no test result.

[2] = test system: blackgrass (Alopecurus myosuroides); experiment: as above; settings: 10 days, 0 = no effect, 100 = complete control
Text: as §1, §2

[3] = test system: corn (Zea mays); experiment: as above; settings: 10 days, 0 = no effect, 100 = complete control
Text: as §1, §2

[4] = test system: green foxtail (Setaria viridis); experiment: as above; settings: 10 days, 0 = no effect, 100 = complete control
Text: as §1, §2

[5] = test system: kochia (Bassia scoparia); experiment: as above; settings: 10 days, 0 = no effect, 100 = complete control
Text: as §1, §2

[6] = test system: oat, wild (wild oat, Avena fatua); experiment: as above; settings: 10 days, 0 = no effect, 100 = complete control
Text: as §1, §2

[7] = test system: palmer (palmer amaranth, palmer pigweed, Amaranthus palmeri); experiment: as above; settings: 10 days, 0 = no effect, 100 = complete control
Text: as §1, §2

[8] = test system: ragweed (common ragweed, Ambrosia artemisiifolia); experiment: as above; settings: 10 days, 0 = no effect, 100 = complete control
Text: as §1, §2

[9] = test system: ryegrass, Italian (italian ryegrass, Lolium multiflorum); experiment: as above; settings: 10 days, 0 = no effect, 100 = complete control
Text: as §1, §2

[10] = test system: soybean (Glycine max); experiment: as above; settings: 10 days, 0 = no effect, 100 = complete control
Text: as §1, §2

[11] = test system: wheat (Triticum aestivum); experiment: as above; settings: 10 days, 0 = no effect, 100 = complete control
Text: as §1, §2

[12] = test system: barnyardgrass (Echinochloa crus-galli); experiment: Test A postemergence application, visual injury rating 0-100; settings: 10 days
Text: as §1, §2

[13] = test system: blackgrass (Alopecurus myosuroides); experiment: as above; settings: 10 days
Text: as §1, §2

[14] = test system: corn (Zea mays); experiment: as above; settings: 10 days
Text: as §1, §2

[15] = test system: green foxtail (Setaria viridis); experiment: as above; settings: 10 days
Text: as §1, §2

[16] = test system: horseweed (Erigeron canadensis); experiment: as above; settings: 10 days
Text: as §1, §2

[17] = test system: kochia (Bassia scoparia); experiment: as above; settings: 10 days
Text: as §1, §2

[18] = test system: oat, wild (wild oat, Avena fatua); experiment: as above; settings: 10 days
Text: as §1, §2

[19] = test system: palmer (palmer amaranth, palmer pigweed, Amaranthus palmeri); experiment: as above; settings: 10 days
Text: as §1, §2

[20] = test system: ragweed (common ragweed, Ambrosia artemisiifolia); experiment: as above; settings: 10 days
Text: as §1, §2

[21] = test system: ryegrass, Italian (italian ryegrass, Lolium multiflorum); experiment: as above; settings: 10 days
Text: as §1, §2

[22] = test system: soybean (Glycine max); experiment: as above; settings: 10 days
Text: as §1, §2

[23] = test system: wheat (Triticum aestivum); experiment: as above; settings: 10 days
Text: as §1, §2

[24] = test system: barnyardgrass (Echinochloa crusgalli); experiment: Test B flooded paddy test, visual plant response rating 0-100; settings: 250 g ai/ha, Flood, applied to paddy water, evaluated after 13 days
Outline: (§3)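 Greenhouse, 13 d. Seedlings at 2-leaf stage, pots flooded to 3 cm, compound delivered into floodwater, water level held constant. Evaluated visually relative to controls.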

[25] = test system: ducksalad (Heteranthera limosa); experiment: as above; settings: 250 g ai/ha, Flood, applied to paddy water, evaluated after 13 days
Outline: as §3

[26] = test system: rice (Oryza sativa); experiment: as above; settings: 250 g ai/ha, Flood, applied to paddy water, evaluated after 13 days
Outline: as §3

[27] = test system: sedge, umbrella (small-flower umbrella sedge, Cyperus difformis); experiment: as above; settings: 250 g ai/ha, Flood, applied to paddy water, evaluated after 13 days
Outline: as §3

[28] = 31 g ai/ha, postemergence, 0 = no effect, 100 = complete control
[29] = Postemergence, 125 g ai/ha, 0 is no effect, 100 is complete control

CC1(C(=O)NC2CC=C(C(=O)O)C2)CN(c2cc(F)cc(F)c2)C(=O)O1 [Compound 38, (4S)-4-[[[3-(3,5-difluorophenyl)-5-methyl-2-oxo-5-oxazolidinyl]carbonyl]amino]-1-cyclopentene-1-carboxylate acid] was tested, and the “Barnyardgrass plant response rating (0-100)” value ([1]; 31 g ai/ha) was 0, the “Barnyardgrass plant response rating (0 to 100 scale)” value ([1]; 125 g ai/ha) was 40 and the “Blackgrass plant response rating (0-100)” value ([2]; 31 g ai/ha) was 0. For the same compound, the “Blackgrass plant response rating (0 to 100 scale)” value ([2]; 125 g ai/ha) was 50, the “Corn plant response rating (0-100)” value ([3]; 31 g ai/ha) was 0 and the “Corn plant response rating (0 to 100 scale)” value ([3]; 125 g ai/ha) was 90. For the same compound, the “Foxtail, Green plant response rating (0-100)” value ([4]; 31 g ai/ha) was 0, the “Foxtail, Green plant response rating (0 to 100 scale)” value ([4]; 125 g ai/ha) was 20 and the “Kochia plant response rating (0-100)” value ([5]; 31 g ai/ha) was 0. The “Kochia plant response rating (0 to 100 scale)” value ([5]; 125 g ai/ha) was 20, the “Oat, Wild plant response rating (0-100)” value ([6]; 31 g ai/ha) was 0 and the “Oat, Wild plant response rating (0 to 100 scale)” value ([6]; 125 g ai/ha) was 60. The “Amaranth, Palmer plant response rating (0-100)” value ([7]; 31 g ai/ha) was 0, the “Amaranth, Palmer plant response rating (0 to 100 scale)” value ([7]; 125 g ai/ha) was 70 and the “Ragweed plant response rating (0-100)” value ([8]; 31 g ai/ha) was 0. For the same compound, the “Ragweed plant response rating (0 to 100 scale)” value ([8]; 125 g ai/ha) was 0, the “Ryegrass, Italian plant response rating (0-100)” value ([9]; 31 g ai/ha) was 0 and the “Ryegrass, Italian plant response rating (0 to 100 scale)” value ([9]; 125 g ai/ha) was 90. For the same compound, the “Soybean plant response rating (0-100)” value ([10]; 31 g ai/ha) was 10, the “Soybean plant response rating (0 to 100 scale)” value ([10]; 125 g ai/ha) was 80 and the “Wheat plant response rating (0-100)” value ([11]; 31 g ai/ha) was 40. For the same compound, the “Wheat plant response rating (0 to 100 scale)” value ([11]; 125 g ai/ha) was 90, the “Barnyardgrass plant response rating (0-100)” value [12, 28] was 90 and the “Barnyardgrass plant response rating (0 to 100 scale)” value [12, 29] was 100. For the same compound, the “Blackgrass plant response rating (0-100)” value [13, 28] was 40, the “Blackgrass plant response rating (0 to 100 scale)” value [13, 29] was 90 and the “Corn plant response rating (0-100)” value [14, 28] was 90. For the same compound, the “Corn plant response rating (0 to 100 scale)” value [14, 29] was 100, the “Foxtail, Green plant response rating (0-100)” value [15, 28] was 90 and the “Foxtail, Green plant response rating (0 to 100 scale)” value [15, 29] was 90. For the same compound, the “Horseweed plant response rating (0-100)” value [16, 28] was 30, the “Horseweed plant response rating (0 to 100 scale)” value [16, 29] was 70 and the “Kochia plant response rating (0-100)” value [17, 28] was 80. The “Kochia plant response rating (0 to 100 scale)” value [17, 29] was 80, the “Oat, Wild plant response rating (0-100)” value [18, 28] was 90 and the “Oat, Wild plant response rating (0 to 100 scale)” value [18, 29] was 90. For the same compound, the “Amaranth, Palmer plant response rating (0-100)” value [19, 28] was 40, the “Amaranth, Palmer / Pigweed, Palmer plant response rating (0 to 100 scale)” value [19, 29] was 100 and the “Ragweed plant response rating (0-100)” value [20, 28] was 20. For the same compound, the “Ragweed plant response rating (0 to 100 scale)” value [20, 29] was 50, the “Ryegrass, Italian plant response rating (0-100)” value [21, 28] was 70 and the “Ryegrass, Italian plant response rating (0 to 100 scale)” value [21, 29] was 90. The “Soybean plant response rating (0-100)” value [22, 28] was 60, the “Soybean plant response rating (0 to 100 scale)” value [22, 29] was 80 and the “Wheat plant response rating (0-100)” value [23, 28] was 90. For the same compound, the “Wheat plant response rating (0 to 100 scale)” value [23, 29] was 90, the “Plant response rating, Barnyardgrass (0 to 100 scale, 0 is no effect and 100 is complete control)” value [24] was 55 and the “Plant response rating, Ducksalad (0 to 100 scale, 0 is no effect and 100 is complete control)” value [25] was 55. For the same compound, the “Plant response rating, Rice (0 to 100 scale, 0 is no effect and 100 is complete control)” value [26] was 70 and the “Plant response rating, Sedge, Umbrella (0 to 100 scale, 0 is no effect and 100 is complete control)” value [27] was 95.
